Data published in patent US20260056204A1, “COMPOSITIONS AND METHODS FOR CHEMOPROTEOMIC REAGENT SYNTHESIS AND APPLICATION” (The Regents of the University of California, priority 2023, published 2026).

System: cysteines in HEK293T cell lysates
Assay: competitive ABPP workflow with DADPS capture reagents
Type: biochemical
From the text: To obtain an isotopically enriched DADPS capture reagent, the synthesis and application of heavy L-valine (^13C5 ^15N)— containing reagent NBIV-010 was focused on, as the relatively large +6 Da mass difference is ideal for MS1-based quantification. Further motivating the isotopic reagent design, a +6-mass difference is used in isoTOP-ABPP and isoDTB reagents together with the previously reported heavy and light azido-biotin reagents, which was envisioned could facilitate head-to-head comparisons. Using the same synthetic strategy, heavy reagent NBIV-010 was obtained in 58% yield. […] These reagents in a were further validated in a competitive ABPP workflow. Using HEK293T cell lysates, samples were subjected to either vehicle, DMSO, or 500 μM KB02. Upon labeling with IAA and clicking the samples with either heavy or light DADPS probe (NBIV-010 or NBIV-009, respectively; FIG. 4B) or heavy or light biotin azide, the samples were subjected to SP3 cleanup. After enrichment with either streptavidin resin, for DADPS labeled peptides, or NeutrAvidin resin, for biotin azide labeled peptides, the peptides were cleaved or eluted off resin, respectively, and analyzed by LC-MS/MS. […]

## COc1ccc2c(c1)CCCN2C(=O)CCl [KB02]
500 μM KB02
  cysteines with ratios>2 shared by DADPS and biotin azide datasets (high confidence KB02-labeled sites): 163
500 μM KB02 vs DMSO, heavy/light DADPS probes NBIV-010/NBIV-009, three biological replicates
  cysteines found in peptides with Log2 MS1 extracted ion chromatograph area ratios>2 (cysteines modified by KB02; ligandable cysteines): 404
